In paper doi:10.1101/2022.06.13.495986v1 (biorxiv, 2022) one finds Kd data, which are given here for one compound.

In this experiment the target is T1, HepII (Heptosyltransferase II) (Escherichia coli, UniProt P37692).
T1 sequence (P37692 1-348): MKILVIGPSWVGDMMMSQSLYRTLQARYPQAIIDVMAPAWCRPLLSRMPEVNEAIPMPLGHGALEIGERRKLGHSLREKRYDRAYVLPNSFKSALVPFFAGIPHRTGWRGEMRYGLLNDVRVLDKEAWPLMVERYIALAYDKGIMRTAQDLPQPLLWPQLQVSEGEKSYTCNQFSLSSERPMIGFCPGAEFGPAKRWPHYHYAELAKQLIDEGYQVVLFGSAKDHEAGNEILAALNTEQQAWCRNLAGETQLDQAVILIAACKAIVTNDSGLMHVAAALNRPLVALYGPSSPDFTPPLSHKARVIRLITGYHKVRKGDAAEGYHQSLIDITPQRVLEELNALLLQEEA
As to the kind of experiment: tryptophan fluorescence quenching. The class given is binding.

A word on the Kd: it is the free concentration of one partner at which half of the binding sites on the other are occupied at equilibrium, for simple one-to-one binding. A higher Kd goes with weaker binding. Regarding `Nc1ncnc2c1ncn2[C@@H]1O[C@H](COP(=O)(O)OP(=O)(O)O[C@@H]2O[C@H]([C@@H](O)CO)[C@@H](O)[C@H](O)[C@@H]2O)[C@@H](O)[C@H]1O` [ADP-Hep], binding was put at a Kd of 660 ± 460 nM.
